Assay results: patent publication US20120122848A1, “(+)-3-HYDROXYMORPHINAN DERIVATIVES AS NEUROPROTECTANTS” (GREEN CROSS CORPORATION, priority 2009, published 2012)
pEC50: −log10 of the molar value. Counter-ions that a name gives are not always drawn.

Tests used:
[1] = tested on: HT22 cells (mouse hippocampal neuron); assay: Cell cytotoxicity test: protection of HT22 cells against glutamate toxicity (EC50) and cytotoxicity of the compounds (CC50), MTT; format: cell-based; conditions: Mus musculus, HT-22, five millimolar glutamate, 24 hrs, read-out: EC50 (neuroprotective effect against glutamate toxicity)
Procedure: (§1) HT22 cells (mouse hippocampal neuron, Salk Institute and KRIBB) were plated in a 96-well plate at a density of 3×10^3 cells/well for 16 hrs before treatment. The cells were treated with five millimolar glutamate and various concentrations of the inventive compounds and incubated for 24 hrs in a growth media (DMEM with 10% FBS and 1% penicillin streptomycin). Then, the cells were treated with 3-(4,5-dimethylthiazol-2-yl)-2,5-diphenyltetrazolium bromide (MTT, Sigma®) for 4 hrs and absorbance of each well was measured with a plate reader at a wavelength of 450 nm. [Da-Qing, et. al., Anti-oxidant and anti-inflammatory activities of macelignan in murine hippocampal cell line and primary culture of rat microglia cells, BBRC, 2005, 331, 1264-1269].
(§2) In Table 1, EC50 is neuroprotective effect against glutamate toxicity and CC50 is cytotoxicity of the compounds. The EC50 values were statistically analyzed using Prizm® (GraphPad Software Inc., San Diego, Calif., USA).

[2] = as above; format: cell-based, mouse; conditions: mouse, HT22 cells (mouse hippocampal neuron)
Procedure: as §1, §2

Oc1cc2c(cc1Nc1ccc3[nH]ncc3c1)C[C@@H]1NCC[C@]23CCCC[C@H]13 [Example 69, (+)-3-Hydroxy-2-((1H-indazol-5-yl)amino)morphinan TFA salt]
pEC50 [1]: 5.99
CC50 at 24 h [2]: 48000 nM

Oc1cc2c(cc1Nc1ccc(Cl)cc1)C[C@@H]1NCC[C@]23CCCC[C@H]13 [Example 25, (+)-2-(4-Chlorophenylamino)-3-hydroxymorphinan TFA salt]
pEC50 [1]: 7.21
CC50 at 24 h [2]: 1870 nM

CSc1cc2c(cc1O)[C@]13CCCC[C@@H]1[C@H](C2)NCC3 [Example 72, (+)-3-Hydroxy-2-methylthiomorphinan TFA salt]
pEC50 [1]: 5.66
CC50 at 24 h [2]: 77300 nM

Oc1cc2c(cc1Nc1ccccc1OC(F)(F)F)C[C@@H]1NCC[C@]23CCCC[C@H]13 [Example 59, (+)-3-Hydroxy-2-(2-(trifluoromethoxy)phenylamino)morphinan TFA salt]
pEC50 [1]: 7.16
CC50 at 24 h [2]: 1700 nM

Oc1cc2c(cc1Nc1ccc(F)cc1)C[C@@H]1NCC[C@]23CCCC[C@H]13 [Example 29, (+)-2-(4-Fluorophenylamino)-3-hydroxymorphinan TFA salt]
pEC50 [1]: 7.47
CC50 at 24 h [2]: 19900 nM

Oc1cc2c(cc1-c1ccc(F)cc1)C[C@@H]1NCC[C@]23CCCC[C@H]13 [Example 77, (+)-2-(4-Fluorophenyl)-3-hydroxymorphinan TFA salt]
pEC50 [1]: 5.51
CC50 at 24 h [2]: 8300 nM

CN(C)c1ccccc1Nc1cc2c(cc1O)[C@]13CCCC[C@@H]1[C@H](C2)NCC3 [Example 126, (+)-2-(2-(Dimethylamino)phenylamino)-3-hydroxymorphinan TFA salt]
pEC50 [1]: 7.92
CC50 at 24 h [2]: 6100 nM

CC(C)(C)C(=O)Nc1ccccc1Nc1cc2c(cc1O)[C@]13CCCC[C@@H]1[C@H](C2)NCC3 [Example 115, (+)-3-Hydroxy-2-(2-(pivalamido)phenylamino)morphinan TFA salt]
pEC50 [1]: 5.60
CC50 at 24 h [2]: 53600 nM

CNc1ccccc1Nc1cc2c(cc1O)[C@]13CCCC[C@@H]1[C@H](C2)NCC3 [Example 127, (+)-3-Hydroxy-2-(2-(methylamino)phenylamino)morphinan TFA salt]
pEC50 [1]: 7.21
CC50 at 24 h [2]: 1300 nM

Oc1cc2c(cc1Nc1ccc3c(c1)OCCO3)C[C@@H]1NCC[C@]23CCCC[C@H]13 [Example 37, (+)-2((3,4-Ethylenedioxy)phenylamino)-3-hydroxymorphinan TFA salt]
pEC50 [1]: 6.85
CC50 at 24 h [2]: 14200 nM

Oc1cc2c(cc1N1CCCCC1)C[C@@H]1NCC[C@]23CCCC[C@H]13 [Example 21, (+)-3-Hydroxy-2-(piperidin-1-yl)morphinan TFA salt]
pEC50 [1]: 6.32
CC50 at 24 h [2]: 63500 nM

Oc1cc2c(cc1Nc1ccccn1)C[C@@H]1NCC[C@]23CCCC[C@H]13 [Example 34, (+)-3-Hydroxy-2-(pyridin-2-ylamino)morphinan 2TFA salt]
pEC50 [1]: 5.63
CC50 at 24 h [2]: 41500 nM

CCOCCNc1cc2c(cc1O)[C@]13CCCC[C@@H]1[C@H](C2)NCC3 [Example 99, (+)-2-(2-Ethoxyethylamino)-3-hydroxymorphinan TFA salt]
pEC50 [1]: 4.98
CC50 at 24 h [2]: > 100000 nM

CC(C)c1ccc(Nc2cc3c(cc2O)[C@]24CCCC[C@@H]2[C@H](C3)NCC4)cc1 [Example 54, (+)-3-Hydroxy-2-(4-isopropylphenylamino)morphinan TFA salt]
pEC50 [1]: 7.22
CC50 at 24 h [2]: 1500 nM

CC(C)(C)c1ccccc1Nc1cc2c(cc1O)[C@]13CCCC[C@@H]1[C@H](C2)NCC3 [Example 51, (+)-2-(2-t-Butylphenylamino)-3-hydroxymorphinan TFA salt]
pEC50 [1]: 7.44
CC50 at 24 h [2]: 1400 nM

Oc1cc2c(cc1Nc1ccccc1F)C[C@@H]1NCC[C@]23CCCC[C@H]13 [Example 38, (+)-2-(2-Fluorophenylamino)-3-hydroxymorphinan TFA salt]
pEC50 [1]: 6.68
CC50 at 24 h [2]: 11800 nM

COc1ccc(Nc2cc3c(cc2O)[C@]24CCCC[C@@H]2[C@H](C3)NCC4)cc1OC [Example 63, (+)-2-(3,4-Dimethoxyphenylamino)-3-hydroxymorphinan TFA salt]
pEC50 [1]: 7.54
CC50 at 24 h [2]: 10100 nM

Cc1ccc(Nc2cc3c(cc2O)[C@]24CCCC[C@@H]2[C@H](C3)NCC4)cc1 [Example 28, (+)-3-Hydroxy-2-(4-methylphenylamino)morphinan TFA salt]
pEC50 [1]: 7.49
CC50 at 24 h [2]: 1840 nM

OCCNc1cc2c(cc1O)[C@]13CCCC[C@@H]1[C@H](C2)NCC3 [Example 100, (+)-3-Hydroxy-2-(2-hydroxyethylamino)morphinan TFA salt]
pEC50 [1]: 4.93
CC50 at 24 h [2]: > 100000 nM

Cc1c2c(cc(O)c1Nc1ccccc1NS(C)(=O)=O)[C@]13CCCC[C@@H]1[C@H](C2)NCC3 [Example 134, (+)-3-Hydroxy-2-(2-(methanesulfonamido)phenylamino)-1-methylmorphinan TFA salt]
pEC50 [1]: 6.82
CC50 at 24 h [2]: 53200 nM

CC(Nc1cc2c(cc1O)[C@]13CCCC[C@@H]1[C@H](C2)NCC3)c1ccccc1 (stereo partly drawn) [Example 91, (+)-3-Hydroxy-2-(1-phenylethylamino)morphinan TFA salt]
pEC50 [1]: 7.09
CC50 at 24 h [2]: 15000 nM

Cc1cc(C)cc(Nc2cc3c(cc2O)[C@]24CCCC[C@@H]2[C@H](C3)NCC4)c1 [Example 27, (+)-2-(3,5-Dimethylphenylamino)-3-hydroxymorphinan TFA salt]
pEC50 [1]: 7.56
CC50 at 24 h [2]: 1520 nM

Oc1cc2c(cc1Nc1cc(Cl)ccc1Cl)C[C@@H]1NCC[C@]23CCCC[C@H]13 [Example 64, (+)-2-(2,5-Dichlorophenylamino)-3-hydroxymorphinan TFA salt]
pEC50 [1]: 6.33
CC50 at 24 h [2]: 1900 nM

CCc1ccccc1Nc1cc2c(cc1O)[C@]13CCCC[C@@H]1[C@H](C2)NCC3 [Example 49, (+)-2-(2-Ethylphenylamino)-3-hydroxymorphinan TFA salt]
pEC50 [1]: 7.48
CC50 at 24 h [2]: 1100 nM

CC(C)(C)c1cc2c(cc1O)[C@]13CCCC[C@@H]1[C@H](C2)NCC3 [Example 104, (+)-2-tert-Butyl-3-hydroxymorphinan TFA salt]
pEC50 [1]: 5.86
CC50 at 24 h [2]: 10000 nM

CCCC(CCC)Nc1cc2c(cc1O)[C@]13CCCC[C@@H]1[C@H](C2)NCC3 [Example 89, (+)-2-(Heptan-4-ylamino)-3-hydroxymorphinan TFA salt]
pEC50 [1]: 7.13
CC50 at 24 h [2]: 1940 nM

COC(=O)c1ccccc1Nc1cc2c(cc1O)[C@]13CCCC[C@@H]1[C@H](C2)NCC3 [Example 108, (+)-3-Hydroxy-2-(2-(methoxycarbonyl)phenylamino)morphinan TFA salt]
pEC50 [1]: 5.10
CC50 at 24 h [2]: > 100000 nM

Cc1ccc(-c2cc3c(cc2O)[C@]24CCCC[C@@H]2[C@H](C3)NCC4)cc1 [Example 75, (+)-3-Hydroxy-2-(4-methylphenyl)morphinan TFA salt]
pEC50 [1]: 5.78
CC50 at 24 h [2]: 9400 nM

CS(=O)(=O)Nc1ccccc1Nc1c(O)cc2c(c1Br)C[C@@H]1NCC[C@]23CCCC[C@H]13 [Example 132, (+)-1-Bromo-3-hydroxy-2-(2-(methanesulfonamido)phenylamino)morphinan TFA salt]
pEC50 [1]: 6.63
CC50 at 24 h [2]: 10600 nM

CN(C)c1cc2c(cc1O)[C@]13CCCC[C@@H]1[C@H](C2)NCC3 [Example 98, (+)-2-(Dimethylamino)-3-hydroxymorphinan TFA salt]
pEC50 [1]: 5.24
CC50 at 24 h [2]: > 100000 nM
